These results are taken from US20250205344A1, “2,4-DIOXOTETRAHYDROPYRIMIDINYL DERATIVES AS DEGRONS IN PROTACS” (GLAXOSMITHKLINE INTELLECTUAL PROPERTY DEVELOPMENT LIMITED, priority 2022, published 2025).

Assay type in all cases: cell-based
Test [1] addresses T1, RIPK2 (Homo sapiens, UniProt O43353).
T1 construct: the RIPK2 gene was modified, using CRISPR/Cas9 editing, so the expressed RIPK2 protein included an 11 amino acid HiBiT tag; endogenous in cells; host or cells: clonal HEK 293-derived line, RIPK2 gene edited by CRISPR/Cas9 (heterozygous)
The test can be described thus: RIPK2 Degradation Assay (Nano-Glo HiBiT). As to conditions: HiBiT-tagged RIPK2 in HEK 293 cells, 18 h. The text has this: Degradation of RIPK2 protein in human embryonic kidney (HEK 293) cells treated with PROTACs was quantified using the Nano-Glo® HiBiT Lytic Detection System (Promega) in 384 well assay plate format. A clonal HEK 293 derived cell line was first established in which the RIPK2 gene was modified, using CRISPR/Cas9 editing, so the expressed RIPK2 protein included an 11 amino acid HiBiT tag at it's amino-terminus. The cell lines were heterozygotic for the HiBIT modification. Cells were cryopreserved in aliquots in 90% foetal bovine serum (FBS), 10% DMSO and stored at −150° C. 10 mM DMSO stock solutions of PROTACs were prepared and diluted across an 11 concentration, 3 fold increment range, and 25 nL dispensed into a white opaque bottomed 384 well assay plate (Thermofisher) using an acoustic ECHO dispenser (Labcyte). For the assay, a cryopreserved vials of cells was rapidly thawed and suspended in 30 mL of assay medium (FluoroBrite™ DMEM supplemented with 10% heat inactivated FBS, penicillin 50 U/mL and streptomycin 50 ug/mL (Thermofisher)). The cell suspension was centrifuged at 400 g for 5 min and the pellet resuspended in assay medium. 25 μL of cell suspension containing 10,000 cells was dispensed into each well of the assay plate containing the test compounds, which was then incubated for 18 h at 37° C./5% CO2. Control wells were included on each assay plate, with assay medium without cells being the no RIPK2 remaining 100% effect control, and cells treated with DMSO vehicle only, without PROTAC, the 0% effect control. 25 μL of Nano-Glo® HiBiT lysis buffer supplemented with LgBiT protein and Nano-Glo® substrate (Promega) was added to each well and the plate shaken at 500 rpm for 10 min at room temperature. The intensity of luminescence was measured using a PHERAstar microplate reader (BMG Labtech) and the % RIPK2 protein remaining in each well calculated by normalising the raw luminescence value to the above control wells. Parameters corresponding to the potency and efficacy estimates of the PROTACs were obtained from these normalised luminescence values using software (IDBS ActivityBase). These included the DC50 and the Dmax estimates. Two versions of the DC50, called relative DC50 and absolute DC50, were typically generated. These are the inflection point of a fitted 4 parameter sigmoidal response curve and the interpolated concentration of PROTAC corresponding to 50% of the protein being degraded, respectively. The Dmax parameter was the maximum experimentally observed degradation and the asymptote max parameter the fitted response curve asymptote maximum.

Test [2] deals with T2, Androgen Receptor (Homo sapiens, UniProt P10275, T878A).
T2 construct: the AR gene was modified, using CRISPR/Cas9 editing, so the expressed AR protein included an 11 amino acid HiBiT tag; endogenous in cells; host or cells: clonal LnCaP-derived line, AR gene edited by CRISPR/Cas9
Kind of test: Androgen Receptor Degradation Assay (Nano-Glo HiBiT). Particulars: LNCaP, 18 h, HiBiT-tagged AR in human LnCaP cells, read-out: mean asymptote max. Put shortly:
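LnCaP cells with CRISPR-knocked-in N-terminal HiBiT-tagged AR (10,000/well) treated 18 h at 37 °C with PROTACs over 11 threefold concentrations; lytic HiBiT luminescence normalised to DMSO (0%) and cell-free (100%) controls. Relative DC50 = 4-parameter fit inflection; absolute DC50 = 50% degradation interpolation; Dmax = maximum observed degradation.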
In general terms: The HiBiT peptide binds its large partner to form an active luciferase.

Test [3] deals with T3, Androgen Receptor dual T878A/L702H mutant protein (Homo sapiens, UniProt P10275, L702H/T878A).
T3 construct: Androgen Receptor dual T878A/L702H mutant protein in human MDA PCa 2b (ATCC, #CRL-2422) cells; host or cells: MDA PCa 2b
T3 sequence (P10275 1-920 L702H/T878A): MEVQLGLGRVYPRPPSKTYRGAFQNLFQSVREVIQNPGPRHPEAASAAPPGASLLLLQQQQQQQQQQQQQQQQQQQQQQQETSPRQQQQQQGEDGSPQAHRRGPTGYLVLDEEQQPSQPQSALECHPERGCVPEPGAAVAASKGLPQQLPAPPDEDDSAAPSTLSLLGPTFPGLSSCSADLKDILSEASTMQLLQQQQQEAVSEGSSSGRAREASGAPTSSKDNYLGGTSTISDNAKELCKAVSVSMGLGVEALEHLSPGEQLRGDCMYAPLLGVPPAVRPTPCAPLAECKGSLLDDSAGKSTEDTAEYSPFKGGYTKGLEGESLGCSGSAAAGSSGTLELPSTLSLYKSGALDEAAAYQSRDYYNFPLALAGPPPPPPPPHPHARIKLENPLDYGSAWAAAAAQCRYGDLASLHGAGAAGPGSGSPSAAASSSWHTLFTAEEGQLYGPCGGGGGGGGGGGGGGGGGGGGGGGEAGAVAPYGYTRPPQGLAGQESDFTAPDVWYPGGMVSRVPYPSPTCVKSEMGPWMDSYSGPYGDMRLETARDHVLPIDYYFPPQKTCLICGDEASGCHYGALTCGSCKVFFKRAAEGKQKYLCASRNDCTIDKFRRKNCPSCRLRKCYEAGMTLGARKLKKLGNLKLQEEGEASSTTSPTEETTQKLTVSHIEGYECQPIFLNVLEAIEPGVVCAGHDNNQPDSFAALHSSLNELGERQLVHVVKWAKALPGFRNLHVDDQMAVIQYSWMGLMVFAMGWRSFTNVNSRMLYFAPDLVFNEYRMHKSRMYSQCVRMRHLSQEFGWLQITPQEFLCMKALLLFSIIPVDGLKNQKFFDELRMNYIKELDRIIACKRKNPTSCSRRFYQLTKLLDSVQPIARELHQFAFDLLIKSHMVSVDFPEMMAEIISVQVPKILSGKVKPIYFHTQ
The test can be described thus: Dual Mutant (T878A/L702H) Androgen Receptor Degradation Assay (HTRF). As to conditions: MDA-PCa-2b, 18 h, human MDA PCa 2b cells, read-out: mean asymptote max. Here is the method:
Degradation of Androgen Receptor dual T878A/L702H mutant protein in human MDA PCa 2b (ATCC, #CRL-2422) cells treated with PROTACs was quantified using the HTRF Human Androgen Receptor Detection Kit (PerkinElmer, #64ANDRPEH) in 384 well assay plate format. 10 mM DMSO(Sigma-Aldrich, #472301) stock solutions of PROTACs were prepared and diluted across an 11 concentration, 3-fold increment range, and 25 nL dispensed into a white opaque bottomed 384 well assay plate (Thermofisher, #164610) using an acoustic ECHO dispenser (Labcyte). Cells were cultured in growth medium (BRFF-HPC-1 (Athena ES, #0403) supplemented with 20% FBS (Gibco, #10099-141), penicillin 50 U/mL and streptomycin 50 ug/mL (Gibco, #15140-122)) in collagen I or poly-D-lysine coated T175 flasks (Corning, #356487 or #356539, respectively). For the assay, cells were harvested from the flask, centrifuged at 200 g for 5 min and then resuspended in the growth medium. 25 μl of cell suspension containing 10,000 cells was dispensed into each well of the assay plate containing the test compounds, which was then incubated for 18 h at 37° C./5% CO2. Control wells were included on each assay plate, with assay medium without cells being the no AR remaining 100% effect control, and cells treated with DMSO vehicle only, without PROTAC, the 0% effect control. After 18 h incubation 8 μl of supplemented lysis buffer from HTRF kit was added to each well and the plate shaken at 500 rpm for 1 h at room temperature. 8 μl of antibody mix in Detection buffer from HTRF kit was added to each well and the plate was incubated for 2 h in dark at room temperature. The fluorescence was measured at both 620 nm and 665 nm using an excitation wavelength of 337 nm with a PHERAstar microplate reader (BMG Labtech) and the % AR protein remaining in each well was calculated by normalising the HTRF ratio (665 nm signal/620 nm signal) value to the control wells mentioned above. Parameters corresponding to the potency and efficacy estimates of the PROTACs were obtained from these normalised values using curve fitting software (IDBS ActivityBase). These included the DC50 and the Dmax estimates. Two versions of the DC50, called relative DC50 and absolute DC50, were typically generated. These are the inflection point of a fitted 4 parameter sigmoidal response curve and the interpolated concentration of PROTAC corresponding to 50% of the protein being degraded, respectively. The Dmax parameter was the maximum experimentally observed degradation and the asymptote max parameter the fitted response curve asymptote maximum.
In general terms: TR-FRET usually uses a lanthanide donor and a delayed reading to cut background.

Counter-ions that a name gives are not always drawn.

T2 sequence (P10275 whole entry T878A): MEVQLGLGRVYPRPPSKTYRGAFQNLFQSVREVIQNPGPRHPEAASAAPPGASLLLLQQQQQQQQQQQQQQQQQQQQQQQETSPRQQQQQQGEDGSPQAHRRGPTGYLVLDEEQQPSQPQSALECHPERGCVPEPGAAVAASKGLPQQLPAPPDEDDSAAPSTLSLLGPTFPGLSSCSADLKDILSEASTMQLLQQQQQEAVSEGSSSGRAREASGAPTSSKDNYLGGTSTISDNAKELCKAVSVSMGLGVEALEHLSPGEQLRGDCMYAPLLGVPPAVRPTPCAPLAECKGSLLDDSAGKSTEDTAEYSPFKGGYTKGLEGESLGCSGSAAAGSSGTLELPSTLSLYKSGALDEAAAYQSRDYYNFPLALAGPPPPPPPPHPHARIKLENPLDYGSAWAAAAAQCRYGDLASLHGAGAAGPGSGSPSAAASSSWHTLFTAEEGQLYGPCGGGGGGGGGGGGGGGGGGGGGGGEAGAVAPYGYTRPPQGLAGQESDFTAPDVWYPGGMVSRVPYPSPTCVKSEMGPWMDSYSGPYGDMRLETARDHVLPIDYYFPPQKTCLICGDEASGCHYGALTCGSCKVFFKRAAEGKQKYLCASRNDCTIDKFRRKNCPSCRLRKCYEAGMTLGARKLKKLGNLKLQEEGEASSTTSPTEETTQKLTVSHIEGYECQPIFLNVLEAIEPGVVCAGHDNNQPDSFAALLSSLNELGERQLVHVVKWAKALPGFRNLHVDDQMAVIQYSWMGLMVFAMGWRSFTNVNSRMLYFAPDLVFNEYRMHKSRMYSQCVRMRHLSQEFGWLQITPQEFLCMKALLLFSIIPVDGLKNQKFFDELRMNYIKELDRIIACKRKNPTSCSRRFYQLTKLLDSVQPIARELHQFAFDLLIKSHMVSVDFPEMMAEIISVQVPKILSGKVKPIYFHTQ
T2 sequence (Q96SW2 whole entry partner): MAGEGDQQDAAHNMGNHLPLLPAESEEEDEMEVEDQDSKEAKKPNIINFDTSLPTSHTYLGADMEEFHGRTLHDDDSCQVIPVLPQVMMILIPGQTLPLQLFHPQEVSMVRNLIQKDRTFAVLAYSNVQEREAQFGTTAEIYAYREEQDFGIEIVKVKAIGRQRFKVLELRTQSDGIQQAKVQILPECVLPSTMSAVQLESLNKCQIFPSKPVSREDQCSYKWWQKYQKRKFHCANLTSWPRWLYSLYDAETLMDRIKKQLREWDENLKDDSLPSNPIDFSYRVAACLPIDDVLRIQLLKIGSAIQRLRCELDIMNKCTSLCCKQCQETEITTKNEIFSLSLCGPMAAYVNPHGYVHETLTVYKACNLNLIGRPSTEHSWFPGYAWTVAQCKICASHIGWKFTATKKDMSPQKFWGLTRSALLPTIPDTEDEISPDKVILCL
T2 sequence (Q16531 whole entry partner): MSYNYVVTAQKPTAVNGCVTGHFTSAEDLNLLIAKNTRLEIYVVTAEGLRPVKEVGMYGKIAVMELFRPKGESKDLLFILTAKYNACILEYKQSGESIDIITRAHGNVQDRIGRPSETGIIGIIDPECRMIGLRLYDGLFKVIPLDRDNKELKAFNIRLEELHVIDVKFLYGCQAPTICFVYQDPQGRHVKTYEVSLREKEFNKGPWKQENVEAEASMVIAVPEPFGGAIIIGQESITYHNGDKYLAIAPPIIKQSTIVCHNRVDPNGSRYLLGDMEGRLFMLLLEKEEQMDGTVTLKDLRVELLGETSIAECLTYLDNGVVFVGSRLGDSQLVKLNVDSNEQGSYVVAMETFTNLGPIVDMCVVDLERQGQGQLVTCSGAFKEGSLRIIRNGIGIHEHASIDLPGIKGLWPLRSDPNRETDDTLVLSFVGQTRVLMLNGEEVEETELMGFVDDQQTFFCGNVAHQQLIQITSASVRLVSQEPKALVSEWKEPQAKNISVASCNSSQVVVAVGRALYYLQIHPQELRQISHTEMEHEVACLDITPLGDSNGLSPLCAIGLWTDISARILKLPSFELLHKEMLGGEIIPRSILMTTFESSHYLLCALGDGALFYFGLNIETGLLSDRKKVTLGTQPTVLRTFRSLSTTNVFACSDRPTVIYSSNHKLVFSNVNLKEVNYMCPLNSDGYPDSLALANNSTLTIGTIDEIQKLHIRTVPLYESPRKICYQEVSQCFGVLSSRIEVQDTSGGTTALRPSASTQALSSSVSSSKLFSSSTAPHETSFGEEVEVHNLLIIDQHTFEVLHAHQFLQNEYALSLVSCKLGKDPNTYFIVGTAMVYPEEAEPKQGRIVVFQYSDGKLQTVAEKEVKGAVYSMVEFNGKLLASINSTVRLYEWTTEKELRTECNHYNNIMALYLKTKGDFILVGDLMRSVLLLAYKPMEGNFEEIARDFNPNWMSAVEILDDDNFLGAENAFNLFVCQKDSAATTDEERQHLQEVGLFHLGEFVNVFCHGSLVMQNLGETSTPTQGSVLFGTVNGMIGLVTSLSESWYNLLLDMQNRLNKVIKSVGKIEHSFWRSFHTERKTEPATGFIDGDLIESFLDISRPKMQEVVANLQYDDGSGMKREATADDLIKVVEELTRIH
T1 sequence (O43353 whole entry): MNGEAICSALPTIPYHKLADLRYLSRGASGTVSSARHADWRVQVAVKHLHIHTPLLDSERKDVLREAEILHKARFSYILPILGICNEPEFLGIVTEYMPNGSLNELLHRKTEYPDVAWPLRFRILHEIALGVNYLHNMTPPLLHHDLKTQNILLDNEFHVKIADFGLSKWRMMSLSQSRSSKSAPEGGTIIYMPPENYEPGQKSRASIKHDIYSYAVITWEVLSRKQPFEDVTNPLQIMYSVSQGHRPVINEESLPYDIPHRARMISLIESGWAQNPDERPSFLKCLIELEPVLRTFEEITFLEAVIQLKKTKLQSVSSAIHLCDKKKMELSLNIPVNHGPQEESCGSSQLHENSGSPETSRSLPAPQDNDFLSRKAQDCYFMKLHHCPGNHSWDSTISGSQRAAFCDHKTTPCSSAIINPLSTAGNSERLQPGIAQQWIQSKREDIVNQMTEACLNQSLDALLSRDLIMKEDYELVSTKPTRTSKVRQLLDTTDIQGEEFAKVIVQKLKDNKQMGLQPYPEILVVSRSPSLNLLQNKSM

Take `CC(C)(C)S(=O)(=O)c1cc2c(Nc3ccc4scnc4c3)ccnc2cc1OCCCN1CCC(c2cnc(C(=O)N3CCC(n4ccc5c(N6CCC(=O)NC6=O)cccc54)CC3)cn2)CC1.O=CO` [Example R2, 1-(1-(1-(5-(1-(3-((4-(Benzo[d]thiazol-5-ylamino)-6-(tert-butylsulfonyl)quinolin-7-yl)oxy)propyl)piperidin-4-yl)pyrazine-2-carbonyl)piperidin-4-yl)-1H-indol-4-yl)dihydropyrimidine-2,4(1H,3H)-dione formate]: in test [1], the “Mean asymptote max (%)” value is listed as 88% and the “mean relative pDC50” value turned out to be 8.5.
On to `CC1(C)[C@H](NC(=O)c2ccc(N3CCC(CN4CCC(n5ccc6c(N7CCC(=O)NC7=O)cccc65)CC4)CC3)nc2)C(C)(C)[C@H]1Oc1ccc(C#N)c(Cl)c1` [EAR29, N-((1r,3r)-3-(3-chloro-4-cyanophenoxy)-2,2,4,4-tetramethylcyclobutyl)-6-(4-((4-(4-(2,4-dioxotetrahydropyrimidin-1(2H)-yl)-1H-indol-1-yl)piperidin-1-yl)methyl)piperidin-1-yl)nicotinamide formate], for which the Dmax is no less than 50% in test [2] and no less than 55% in test [3].
Taken in the same sequence, the figures for `CC1(C)[C@H](NC(=O)c2ccc(N3CCC(CN4CCC(n5ncc6c(N7CCC(=O)NC7=O)cccc65)CC4)CC3)nc2)C(C)(C)[C@H]1Oc1ccc(C#N)c(Cl)c1` [AR41, N-((1r,3r)-3-(3-Chloro-4-cyanophenoxy)-2,2,4,4-tetramethylcyclobutyl)-6-(4-((4-(4-(2,4-dioxotetrahydropyrimidin-1(2H)-yl)-1H-indazol-1-yl)piperidin-1-yl)methyl)piperidin-1-yl)nicotinamide hydrochloride] were no less than 50% and no less than 55%.
In the same order, the values of `CC1(C)[C@H](NC(=O)c2cnc(N3CCC(CN4CCC(n5ccc6c(N7CCC(=O)NC7=O)cncc65)CC4)CC3)cn2)C(C)(C)[C@H]1Oc1ccc(C#N)c(Cl)c1` [AR14, N-((1r,3r)-3-(3-Chloro-4-cyanophenoxy)-2,2,4,4-tetramethylcyclobutyl)-5-(4-((4-(4-(2,4-dioxotetrahydropyrimidin-1(2H)-yl)-1H-pyrrolo[2,3-c]pyridin-1-yl)piperidin-1-yl)methyl)piperidin-1-yl)pyrazine-2-carboxamide] are no less than 50% and no less than 55%.
On to `CC1(C)[C@H](NC(=O)c2cnc(N3CCC(CN4CCC(n5ncc6c(N7CCC(=O)NC7=O)cccc65)CC4)CC3)cn2)C(C)(C)[C@H]1Oc1ccc(C#N)c(Cl)c1` [EAR37, N-((1r,3r)-3-(3-Chloro-4-cyanophenoxy)-2,2,4,4-tetramethylcyclobutyl)-5-(4-((4-(4-(2,4-dioxotetrahydropyrimidin-1(2H)-yl)-1H-indazol-1-yl)piperidin-1-yl)methyl)piperidin-1-yl)pyrazine-2-carboxamide hydrochloride], for which the Dmax in test [2] is no less than 50%; in test [3], no less than 55%.
Taken in the same sequence, the figures for `CC1(C)[C@H](NC(=O)c2cnc(N3CCC(C(=O)N4CCC(n5ccc6c(N7CCC(=O)NC7=O)cccc65)CC4)CC3)nc2)C(C)(C)[C@H]1Oc1ccc(C#N)c(Cl)c1` [AR67, N-((1r,3r)-3-(3-Chloro-4-cyanophenoxy)-2,2,4,4-tetramethylcyclobutyl)-2-(4-(4-(4-(2,4-dioxotetrahydropyrimidin-1(2H)-yl)-1H-indol-1-yl)piperidine-1-carbonyl)piperidin-1-yl)pyrimidine-5-carboxamide] were no less than 50% and no less than 55%.
In the same order, the values of `CC1(C)[C@H](NC(=O)c2ccc(N3CCC(CN4CCC(n5ncc6c(N7CCC(=O)NC7=O)cccc65)CC4)CC3)nn2)C(C)(C)[C@H]1Oc1ccc(C#N)c2ncccc12` [AR246, N-((1r,3r)-3-((8-Cyanoquinolin-5-yl)oxy)-2,2,4,4-tetramethylcyclobutyl)-6-(4-((4-(4-(2,4-dioxotetrahydropyrimidin-1(2H)-yl)-1H-indazol-1-yl)piperidin-1-yl)methyl)piperidin-1-yl)pyridazine-3-carboxamide] are no less than 50% and no less than 55%.
